According to article PMC6983213, “Combining Chalcones with Donepezil to Inhibit Both Cholinesterases and Aβ Fibril Assembly” (Molecules, 2019):
Where “and” joins values, the source holds several entries; their conditions need not be identical. Identical values can stand only once. Like-named read-outs stand apart in the source and are kept apart here.

What was measured:
[1] = molecular target: EeAChE (AChE from Electrophorus electricus) (Electrophorus electricus, UniProt O42275); assay: biochemical; details: for IC50: Ellman's method, pH 8.0, 25 °C, triplicate, ± SDEV, read-out: Inhibition (IC50) of EeAChE; for selectivity index (SI): based on IC50 values against EeAChE and EfBChE
Protocol: (§1) The ChE inhibition assays were performed as previously described. The 1,3- and 1,4-chalcone-donepezil hybrids (0.1 nM to 100 μM) were dissolved in sodium phosphate buffer ((100 μL), 0.1 M, pH 8.0). […] All assays were performed in triplicate. The data was plotted as a sigmoidal curve and IC50 values were calculated using SigmaPlot 14.0 (Systat Software, San Jose, CA, USA).

[2] = molecular target: EfBChE (BChE from Equus ferus) (Equus caballus, UniProt P81908); assay: biochemical; assay type: biochemical; details: Ellman's method, pH 8.0, 25 °C, triplicate, ± SDEV; read-out: Inhibition (IC50) of EfBChE
Protocol: as §1

[3] = molecular target: T1, N-biotinyl-Aβ(1–42) (bioAβ42) oligomer assembly (Homo sapiens, UniProt P05067); assay: biochemical; details: for bioAβ42 oligomer assembly inhibition (in words): 1.56 to 50 μM, alone or in 1:1 / 1:1:1 mixtures; for EC50: concentration range 50 to 1.56 μM, duplicate, n = 3 independent experiments, ± SDEV
T1 construct: N-biotinyl Aβ(1–42) (bioAβ42) was purchased from Anaspec; purchased Anaspec (Fremont, CA, USA) AS-23523-05
Protocol: We first examined the effect of the synthesized 1,3- and 1,4-chalcone-donepezil hybrids 15a–15f and 16a–16f on the assembly of N-biotinyl-Aβ(1–42) (bioAβ42) monomers into oligomers. We quantified the assembly of bioAβ42 into soluble oligomers by using an ELISA assay in which the soluble oligomers were captured on NeutrAvidin^TM-coated ELISA plates and detected with streptavidin-horseradish peroxidase and colorimetric readout (Figure 3).
The plates were then stored in their blocked form at 4 °C prior to use for the oligomer assembly and dissociation assays.
The assembly of bioAβ42 into soluble oligomers was quantified with an ELISA assay in which the soluble oligomers were captured with the NeutrAvidin^TM coating the ELISA plates. The bound oligomers were detected with streptavidin-horseradish peroxidase (SA-HRP). […] Below, please find the details of the three steps (Steps 1–3) used for the oligomer assembly assay.
Step 1: Preparation of monomeric bioAβ42. For a low background, it was essential to rigorously pretreat the bioAβ42 peptide to convert (disaggregate) the multimeric species that form upon storage in the solid state, or even frozen in 1,1,1,3,3,3-hexafluoroisopropanol (HFIP) to monomers. The required amount of stock bioAβ42 peptide (0.5 mg dissolved at 1 mg/mL in HFIP) was pipetted into a polypropylene microfuge tube, dried to a thin film under a gentle air or N2 stream, and then disaggregated for 10 min at rt in neat trifluoroacetic acid (TFA). After removal of the TFA by drying with an air or N2 stream, DMSO was added to produce a 2.3 μg/mL (50×) stock solution.
Step 2: Assembly of bioAβ42 oligomers. 2 μL of disaggregated monomeric 50× bioAβ42 peptide in DMSO (prepared in Step 1) was pipetted into the bottom of each well of a polypropylene 96-well plate. […] The 96-well plate was sealed and incubated at rt for 30 min without shaking. The bioAβ42 oligomer assembly was stopped by adding 50 μL of 0.3% Tween 20 v/v in distilled H2O.
Step 3: Measurement of bioAβ42 oligomers. […] The 96-well plate was then sealed and incubated for 2 h while shaking at 150 rpm at rt. […] The plate was sealed and incubated for 1 h while shaking at 150 rpm at rt. The plate was washed as previously described, and 100 μL/well of HRP substrate (i.e., 1 mM:0.07 mM/tetramethylbenzidine:H2O2) in 0.2 M citrate buffer, pH 4.0 was added. The plate was incubated at rt for 5 to 10 min and the reaction was stopped by the addition of 100 μL/well of 1% v/v H2SO4. The absorbance of each well was read at 450 nm with a BioTek HT Synergy plate reader.
The effects of various chalcones, donepezil, donepezil analogue, and 1,3-chalcone-donepezil hybrids were tested for their ability to inhibit the bioAβ42 oligomer assembly and dissociation either alone or in combination with each other. The experiments were performed as described in the biotinyl-Aβ(1–42) (bioAβ42) oligomer assembly and dissociation assays section.

[4] = system: ADPBC (Alzheimer's disease PIB binding complex); assay: 3H-PIB binding competition/titration, ADPBC; parameters: species or system Human; details: compounds at 10 μM (titration 10 to 0.03 μM); 1.2 nM 3H-PIB
Protocol: Human AD brain frontal cortical tissue (from the Sanders-Brown Center on Aging Alzheimer’s Disease Center Brain Bank at the University of Kentucky) was processed as follows.
(§2) The plates were sealed and incubated for 3 h at 22 °C, without shaking, and transferred to a 96-well Millipore Multiscreen HTS Hi Flow FB (GF/B) filter plate, and filtered with a multi-well plate vacuum manifold (Millipore Corporation, Bedford, MA, USA). […] Specific binding of ^3H-PIB was determined by subtracting the non-specific binding determined in the presence of 1 μM BTA-1.
(§3) The titration of compounds with ^3H-PIB bound to Aβ(1–40) and Aβ(1–42) fibrils and AD brain extract (ADPBC) were performed to further determine the competition of our compounds for the ^3H-PIB binding site of the AD brain. The experiments were performed as described in the ^3H-PIB binding assays of Section 3.4.3 with the use of a concentration range of 10 to 0.03 μM for the compounds tested.

F40 = Aβ(1–40) fibrils = molecular target: T2, F40 = Aβ(1–40) fibrils (Homo sapiens, UniProt P05067); assay: 3H-PIB binding competition/titration, Aβ(1–40) fibrils; details: compounds at 10 μM (titration 10 to 0.03 μM); 1.2 nM 3H-PIB
T2 construct: lyophilized NH4OH-treated Aβ(1–40) (cat # A-1157-02); purchased rPeptide (Watkinsville, GA, USA) A-1157-02
Protocol: (§4) Prior to being transferred to screw-top polypropylene vials and being stored at −75 °C, these 1 mg/mL fibril suspensions were further diluted with an equal volume of the buffer solution.
as §2, §3

F42 = Aβ(1–42) fibrils = molecular target: T3, F42 = Aβ(1–42) fibrils (Homo sapiens, UniProt P05067); assay: 3H-PIB binding competition/titration, Aβ(1–42) fibrils; details: compounds at 10 μM (titration 10 to 0.03 μM); 1.2 nM 3H-PIB
T3 construct: Aβ(1–42) (cat # A-1167-02) purchased from rPeptide; purchased rPeptide (Watkinsville, GA, USA) A-1167-02
Protocol: as §4, §2, §3

[5] = read-out: EC50 against bioAβ42 oligomer assembly

Sequence of EeAChE (AChE from Electrophorus electricus) (O42275 24-633): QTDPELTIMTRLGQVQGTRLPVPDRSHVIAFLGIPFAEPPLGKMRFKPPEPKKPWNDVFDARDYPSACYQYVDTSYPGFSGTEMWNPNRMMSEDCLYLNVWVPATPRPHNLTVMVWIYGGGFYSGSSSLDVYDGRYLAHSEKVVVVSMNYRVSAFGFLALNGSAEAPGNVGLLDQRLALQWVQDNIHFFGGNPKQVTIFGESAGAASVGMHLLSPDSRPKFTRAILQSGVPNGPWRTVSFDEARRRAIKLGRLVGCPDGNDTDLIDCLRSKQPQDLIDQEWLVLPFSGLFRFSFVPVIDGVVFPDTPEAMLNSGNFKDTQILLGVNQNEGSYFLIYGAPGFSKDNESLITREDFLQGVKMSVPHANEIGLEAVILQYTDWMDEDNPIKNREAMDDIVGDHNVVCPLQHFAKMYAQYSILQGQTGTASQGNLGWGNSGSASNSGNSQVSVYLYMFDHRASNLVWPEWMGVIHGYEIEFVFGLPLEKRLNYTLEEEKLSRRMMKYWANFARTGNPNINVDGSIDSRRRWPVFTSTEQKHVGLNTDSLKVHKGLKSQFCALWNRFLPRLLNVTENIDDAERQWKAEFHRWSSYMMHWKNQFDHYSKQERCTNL
T1 sequence (P05067 672-713): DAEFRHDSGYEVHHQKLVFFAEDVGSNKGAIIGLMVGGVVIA
Sequence of EfBChE (BChE from Equus ferus) (P81908 whole entry): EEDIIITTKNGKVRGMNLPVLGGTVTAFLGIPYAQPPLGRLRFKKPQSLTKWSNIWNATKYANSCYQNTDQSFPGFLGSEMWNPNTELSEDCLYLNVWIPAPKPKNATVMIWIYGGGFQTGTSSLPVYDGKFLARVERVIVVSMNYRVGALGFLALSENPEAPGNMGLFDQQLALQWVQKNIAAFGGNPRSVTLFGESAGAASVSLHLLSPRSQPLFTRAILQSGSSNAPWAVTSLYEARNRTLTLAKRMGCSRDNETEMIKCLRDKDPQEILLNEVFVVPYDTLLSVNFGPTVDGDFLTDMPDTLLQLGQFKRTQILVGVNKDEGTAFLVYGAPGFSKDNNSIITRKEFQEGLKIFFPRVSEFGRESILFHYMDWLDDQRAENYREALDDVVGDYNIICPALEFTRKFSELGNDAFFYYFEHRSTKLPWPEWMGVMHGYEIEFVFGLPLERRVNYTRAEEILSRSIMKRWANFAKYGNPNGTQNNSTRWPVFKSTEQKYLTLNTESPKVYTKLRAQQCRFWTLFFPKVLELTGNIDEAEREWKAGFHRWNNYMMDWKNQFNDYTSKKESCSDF
T2 sequence (P05067 672-711): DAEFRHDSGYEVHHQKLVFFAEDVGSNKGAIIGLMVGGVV
T3 sequence (P05067 672-713): as the sequence (P05067 672-713) above

| SMILES | IC50 [1] | selectivity index (SI) [1] | IC50 [2] | bioAβ42 oligomer assembly inhibition (in words) [3] | EC50 [3, 5] | displacement of 3H-PIB from ADPBC (in words) [4] | displacement of 3H-PIB from F40 (in words) (F40 = Aβ(1–40) fibrils) | displacement of 3H-PIB from F42 (in words) (F42 = Aβ(1–42) fibrils) | EC50 ([3]; EC50 against bioAβ42 oligomer assembly) |
| --- | --- | --- | --- | --- | --- | --- | --- | --- | --- |
| COc1cc2c(cc1OCCCCOc1ccc(C(=O)/C=C/c3ccc(N(C)C)cc3)cc1)C(=O)C(CC1CCN(Cc3ccccc3)CC1)C2 (centres unmarked) [16b, (E)-2-((1-Benzylpiperidin-4-Yl)Methyl)-6-(4-(4-(3-(4-(Dimethylamino)Phenyl)Acryloyl)Phenoxy)Butoxy)-5-Methoxy-2,3-Dihydro-1H-Inden-1-One] | 140 ± 20 nM | ≈3.6 | ~500 nM | better inhibition of bioAβ42 oligomer assembly | 2000 ± 200 nM |  |  |  |  |
| COc1cc2c(cc1OCCCCCCCCOc1ccc(C(=O)/C=C/c3ccc(N(C)C)cc3)cc1)C(=O)C(CC1CCN(Cc3ccccc3)CC1)C2 (centres unmarked) [16d, (E)-2-((1-Benzylpiperidin-4-Yl)Methyl)-6-((8-(4-(3-(4-(Dimethylamino)Phenyl)Acryloyl)Phenoxy)Octyl)Oxy)-5-Methoxy-2,3-Dihydro-1H-Inden-1-One] | 520 ± 60 nM | ≈1.9 | ~1000 nM | better inhibition of bioAβ42 oligomer assembly | 4130 ± 150 nM |  |  |  |  |
| CN(C)c1ccc(/C=C/C(=O)c2ccc(O)cc2)cc1 [compound 6, (E)-3-(4-(Dimethylamino)Phenyl)-1-(4-Hydroxyphenyl)Prop-2-En-1-One] |  |  |  |  | > 50000 nM |  |  |  |  |
| COc1cc2c(cc1OCCCCCCCCCCOc1ccc(C(=O)/C=C/c3ccc(N(C)C)cc3)cc1)C(=O)C(CC1CCN(Cc3ccccc3)CC1)C2 (centres unmarked) [16e, (E)-2-((1-Benzylpiperidin-4-Yl)Methyl)-6-((10-(4-(3-(4-(Dimethylamino)Phenyl)Acryloyl)Phenoxy)Decyl)Oxy)-5-Methoxy-2,3-Dihydro-1H-Inden-1-One] | 1380 ± 180 nM |  | ~5000 nM | did not prevent bioAβ42 oligomerization | 9730 ± 550 nM | ADPBC affinity comparable to that of 16a |  |  |  |
| COc1cc2c(cc1OCCCCCCOc1ccc(C(=O)/C=C/c3ccc(N(C)C)cc3)cc1)C(=O)C(CC1CCN(Cc3ccccc3)CC1)C2 (centres unmarked) [16c, (E)-2-((1-Benzylpiperidin-4-Yl)Methyl)-6-((6-(4-(3-(4-(Dimethylamino)Phenyl)Acryloyl)Phenoxy)Hexyl)Oxy)-5-Methoxy-2,3-Dihydro-1H-Inden-1-One] | ~500 nM | ≈1.2 | ~600 nM | better inhibition of bioAβ42 oligomer assembly | 2600 ± 460 nM |  |  |  |  |
| COc1cc2c(cc1OCCCCCCOc1cccc(C(=O)/C=C/c3ccc(N(C)C)cc3)c1)C(=O)C(CC1CCN(Cc3ccccc3)CC1)C2 (centres unmarked) [15c, (E)-2-((1-Benzylpiperidin-4-Yl)Methyl)-6-((6-(3-(3-(4-(Dimethylamino)Phenyl)Acryloyl)Phenoxy)Hexyl)Oxy)-5-Methoxy-2,3-Dihydro-1H-Inden-1-One] | 1220 ± 180 nM | ≈3.3 | ~4000 nM | better inhibition of bioAβ42 oligomer assembly | 8670 ± 150 nM |  |  |  |  |
| COc1cc2c(cc1OCCCCCCCCOc1cccc(C(=O)/C=C/c3ccc(N(C)C)cc3)c1)C(=O)C(CC1CCN(Cc3ccccc3)CC1)C2 (centres unmarked) [15d, (E)-2-((1-Benzylpiperidin-4-Yl)Methyl)-6-((8-(3-(3-(4-(Dimethylamino)Phenyl)Acryloyl)Phenoxy)Octyl)Oxy)-5-Methoxy-2,3-Dihydro-1H-Inden-1-One] | 1220 ± 130 nM | ≈1.6 | ~2000 nM | better inhibition of bioAβ42 oligomer assembly | 9670 ± 1150 nM |  |  |  |  |
| COc1cc2c(cc1OCCCCCCCCCCCCOc1ccc(C(=O)/C=C/c3ccc(N(C)C)cc3)cc1)C(=O)C(CC1CCN(Cc3ccccc3)CC1)C2 (centres unmarked) [16f, (E)-2-((1-Benzylpiperidin-4-Yl)Methyl)-6-((12-(4-(3-(4-(Dimethylamino)Phenyl)Acryloyl)Phenoxy)Dodecyl)Oxy)-5-Methoxy-2,3-Dihydro-1H-Inden-1-One] | > 100000 nM |  | > 100000 nM | did not prevent bioAβ42 oligomerization | 24100 nM and > 12000 nM | ADPBC affinity comparable to that of 16a |  |  |  |
| COc1cc2c(cc1OCCOc1ccc(C(=O)/C=C/c3ccc(N(C)C)cc3)cc1)C(=O)C(CC1CCN(Cc3ccccc3)CC1)C2 (centres unmarked) [16a, (E)-2-((1-Benzylpiperidin-4-Yl)Methyl)-6-(2-(4-(3-(4-(Dimethylamino)Phenyl)Acryloyl)Phenoxy)Ethoxy)-5-Methoxy-2,3-Dihydro-1H-Inden-1-One] | 70 ± 10 nM | ≈1.4 | ~100 nM | better inhibition of bioAβ42 oligomer assembly |  |  | better affinity for F40 and F42 than 16b, 16c, 16d, 16e, and 16f | better affinity for F40 and F42 than 16b, 16c, 16d, 16e, and 16f | 9370 ± 2100 nM |
| COc1cc2c(cc1OCCCCCCCCCCOc1cccc(C(=O)/C=C/c3ccc(N(C)C)cc3)c1)C(=O)C(CC1CCN(Cc3ccccc3)CC1)C2 (centres unmarked) [15e, (E)-2-((1-Benzylpiperidin-4-Yl)Methyl)-6-((10-(3-(3-(4-(Dimethylamino)Phenyl)Acryloyl)Phenoxy)Decyl)Oxy)-5-Methoxy-2,3-Dihydro-1H-Inden-1-One] | 1820 ± 450 nM | ≈5.5 | ~10000 nM | did not prevent bioAβ42 oligomerization | 31700 nM and > 12000 nM |  |  |  |  |
| COc1cc2c(cc1OCCCCCCCCCCCCOc1cccc(C(=O)/C=C/c3ccc(N(C)C)cc3)c1)C(=O)C(CC1CCN(Cc3ccccc3)CC1)C2 (centres unmarked) [15f, (E)-2-((1-Benzylpiperidin-4-Yl)Methyl)-6-((12-(3-(3-(4-(Dimethylamino)Phenyl)Acryloyl)Phenoxy)Dodecyl)Oxy)-5-Methoxy-2,3-Dihydro-1H-Inden-1-One] | 1670 ± 800 nM | >60 | > 100000 nM | did not prevent bioAβ42 oligomerization | 45300 nM and > 12000 nM |  |  |  |  |
